In patent US9950026B2, “Methods for reducing oxidative damage” (Cornell Research Foundation, Inc., priority 2004, dated 2018):
Where a SMILES comes first, the peptide text is derived from it. [ ]: non-standard residue; d: D form. Dmt = Cc1cc(O)cc(C)c1C[C@H](N)C(=O)O

How the values were obtained:
[1] = Scavenging of H2O2, luminol-induced chemiluminescence; assay type: biochemical; details: H2O2 4.4 nmol, 20 min, 37° C.
Procedure: Effect of SS-02 and SS-05 (Dmt-D-Arg-Phe Orn-NH2) on H2O2 as measured by luminol-induced chemiluminescence, 25 μM luminol and 0.7 IU horseradish peroxidase were added to the solution of H2O2 (4.4 nmol) and peptide, and chemiluminescence was monitored with a Chronolog Model 560 aggregometer (Havertown, Pa.) for 20 min at 37° C.

[2] = test system: isolated mouse liver mitochondria; test: H2O2 production by isolated mitochondria, luminol chemiluminescence; assay type: biochemical
[3] = test system: Caco-2 cells; test: Mitochondrial potential (TMRM) after tBHP; assay type: cell-based, human; details: tBHP 1 mM, SS-02 0.1 μM, 4 h
Procedure: Caco-2 cells were treated with tBHP (1 mM) in the absence or presence of SS-02 (0.1 μM) for 4 h, and then incubated with TMRM and examined under LSCM. In control cells, the mitochondria are clearly visualized as fine streaks throughout the cytoplasm.

[4] = test system: SH-SY5Y cells; test: Cell viability, MTS assay, cells treated with tBHP; assay type: cell-based, human; details: t-BHP 0.05-0.1 mM, 24 h
Procedure: Neuronal N2A and SH-SY5Y cells were plated in 96-well plate at a density of 1×10^4/well and allowed to grow for 2 days before treatment with t-butyl hydroperoxide (tBHP) (0.05-0.1 mM) with or without SS-31 (10^−12 M to 10^−9 M for 24 h. Cell death was assessed by a cell proliferation assay (MTS assay, Promega, Madison, Wis.).

[5] = test system: G93A mice; test: Lumbar spinal cord cell counts and immunostaining in ALS mice; assay type: in vivo
Text: FIG. 27. Attenuation of motor neuron loss by SS-31 in the ventral horn of the lumbar spinal cord of G93A mice. Photomicrographs show cresyl violet stained sections through the ventral horn of the lumbar spinal cord from non-transgenic control (A) and G93A mice treated with vehicle (PBS) (B) or SS-31 (C) at 110 days of age. […] Values are mean±standard error of means.
(§1) FIG. 28A-28C. 4-hydroxynonenol immunostaining. Photomicrographs of representative sections through the ventral horn of the lumbar spinal cord of wild-type control (A), and G93A mice treated with vehicle (B) or SS-31 (C) show generalized reduction of 4-hydroxynonenal staining in neurons and neurophils in drug-treated mice.
as §1, with “29A-29C. Nitrotyrosine” for “28A-28C. 4-hydroxynonenol”, “nitrotyrosine” for “4-hydroxynonenal”

[6] = test system: Diabetic DBA/2 mice; test: Marginal islet cell mass transplantation model; assay type: in vivo
Procedure: FIG. 35A-35C. Reversal of diabetes following transplantation of a marginal mass of syngeneic islets. Diabetic DBA/2 mice received 200 syngeneic islet cells under the right kidney capsule. Reversal of diabetes was defined as random nonfasting blood glucose levels below 200 mg/dl on 3-consecutive days. (A) Blood glucose levels of each individual control mouse following transplantation of 200 syngeneic islets. (B) Blood glucose levels of each individual SS-31 treated mouse following transplantation of 200 syngeneic islets. (C) Reversal of diabetes following transplantation of a marginal islet cell mass in SS-31 treatment vs. control. Number of normoglycemic mice by day 1, 3, 5, 10 and 14 post transplantation and two-tailed P-valued calculated using chi-squared bivariate analysis are shown.
In a marginal islet cell mass transplantation model, 0 of 8 recipients of islets isolated from pancreas harvested from the control mice had successful reversal of hyperglycemia (defined as three consecutive blood glucose levels<200 mg/dl), whereas sustained normoglycemia occurred in 5 of ten recipients of islets isolated from pancreas from the SS-31 treated donor mice (FIG. 35).

[7] = test system: islet cells isolated from mouse pancreas; test: Islet isolation with SS-31 in isolation buffers (TMRM; annexin V/PI flow cytometry); assay type: cell-based; details: SS-31 1 nM in all isolation buffers
Procedure: Pancreas was harvested from mice and islet cells were prepared according standard procedures. In some studies, SS-31 (1 nM) was added to all isolation buffers used throughout the isolation procedure. Mitochondrial potential was measured using TMRM (red) and visualized by confocal microscopy.
Pancreas was harvested from mice and islet cells were prepared according standard procedures. In some studies, SS-31 (1 nM) was added to all isolation buffers used throughout the isolation procedure. Apoptosis was ascertained by flow cytometry using annexin V and necrosis by propidium iodide.

[8] = test system: N2A cells; test: tBHP-induced LDH release; assay type: cell-based, murine; details: 100 μM tBHP
Procedure: FIG. 18A-18B. SS-31 reduced tBHP-induced LDH release in SH-SY5Y (A) and N2A (B) cells. Cells were treated with 100 μM tBHP alone, or with SS-31, for 24 h. *P<0.05, **P<0.01, ***P<0.001, compared to tBHP alone.
The loss of cell viability induced by 100 μM tBHP was accompanied by a significant increase in LDH release in SH-SY5Y (FIG. 18A) and N2A cell (FIG. 18B).

[9] = test system: isolated guinea pig hearts; test: Isolated hearts, 18 h cold ischemia followed by warm reperfusion; details: 1 nM SS-31 in cardioplegic solution, 18 h at 4° C.
Procedure: Isolated guinea pig hearts were perfused in a retrograde manner in a Langendorff apparatus with a cardioplegic solution (St. Thomas solution) without or with SS-31 (1 nM) for 3 min. and then clamped and stored at 4° C. for 18 h. Subsequently, the hearts were remounted in the Langendorff apparatus and reperfused with Krebs-Henseleit solution at 34° C. for 90 min. Hearts were then rapidly fixed and paraffin-embedded.
(B) Immunohistochemical analysis of HNE-modified proteins in paraffin sections from guinea pig hearts stored without (a) or with (b) SS-31 (1 nM). (c) Background staining without primary antibody.
Apoptosis was assessed by the TUNEL stain (green) and nuclei are visualized by DAPI (blue).

[10] = test system: SH-SY5Y cells; test: Mitochondrial function, MTT assay, after tBHP; assay type: cell-based, human; details: tBHP 50-100 μM, 24 h
Procedure: FIG. 23A-23B. SS-31 protected against tBHP-induced mitochondrial viability. (A) SS-31 protected mitochondrial viability in N2A cells treated with tBHP for 24 h. Mitochondrial viability was evaluated using the MTT assay (*P<0.01 compared to untreated cells, *P<0.05, P<0.01 compared to tBHP alone). […]
Only viable mitochondria containing NADPH dehydrogenase activity are capable of cleaving MTT to the formazan. A 50 μM tBHP induced 50% loss of mitochondrial function in N2A cells (FIG. 23A, […]) and 30% loss of mitochondrial function in SH-SY5Y cells (FIG. 23B, P<0.01). […] Treatment of N2A cells with SS-31 alone had no effect on mitochondrial function.

2′,6′-Dmt-Arg-Phe-Lys-NH2 [SS-02]
luminol response (H2O2 scavenging) [1]: dose-dependently inhibited
antimycin-induced increase in H2O2 production ([2]; antimycin 1 μM, peptide 1.0 μM): completely blocked
amount of H2O2 production ([2]; basal, 10 μM): significantly reduced
mitochondrial depolarization caused by tBHP [3]: protected against mitochondrial depolarization

Cc1cc(O)cc(C)c1C[C@H](NC(=O)[C@H](N)CCCNC(=N)N)C(=O)N[C@@H](CCCCN)C(=O)N[C@@H](Cc1ccccc1)C(N)=O [SS-31, D-Arg-2′6′-Dmt-Lys-Phe-NH2] (H-[dR][Dmt]KF-NH2; N-terminus assumed)
concentration achieving complete protection against t-BHP [4]: 1 nM
t-BHP-induced cytotoxicity ([4]; concurrent treatment): dose-dependent reduction
cell loss in the lumbar spinal cord (stereological cell counts) ([5]; mouse, in vivo): significantly ameliorated
3-nitrotyrosine immunostaining (protein nitration) ([5]; spinal cord): markedly reduced
4-hydroxynonenenal immunostaining (lipid peroxidation) ([5]; spinal cord): markedly reduced
recipients with sustained normoglycemia ([6]; islets from SS-31 treated donor mice): 5 of ten
effect of discontinuation of SS-31 treatment on day 10 ([6]; mouse, in vivo): did not result in return of hyperglycemia
time of reversal of hyperglycemia post-transplant ([6]; mouse, in vivo): ≤ 1 days
apoptosis (annexin V) [7]: reduces apoptosis
mitochondrial potential (TMRM) [7]: improves mitochondrial potential
viability [7]: increases viability
LDH release ([8]; 0.1 and 1 nM of SS-31): reduced significantly
LDH release / tBHP-induced cytotoxicity ([8]; 24 h): dose-dependent decrease
apoptosis in endothelial cells and myocytes (TUNEL) [9]: prevents apoptosis
coronary flow [9]: significantly improved
lipid peroxidation (HNE-modified proteins) [9]: Reduces Lipid Peroxidation
tBHP-induced mitochondrial toxicity (MTT) [10]: dose-dependently reduced
